Experimental data published in BindingDB's records for patent US20240368133 (Confo Therapeutics, 2024).

target: T1, Type-2 angiotensin II receptor/Low affinity immunoglobulin epsilon Fc receptor (Homo sapiens, UniProt P06734+P50052); experiment: Radioligand Assay
T1 sequence (P50052 whole entry): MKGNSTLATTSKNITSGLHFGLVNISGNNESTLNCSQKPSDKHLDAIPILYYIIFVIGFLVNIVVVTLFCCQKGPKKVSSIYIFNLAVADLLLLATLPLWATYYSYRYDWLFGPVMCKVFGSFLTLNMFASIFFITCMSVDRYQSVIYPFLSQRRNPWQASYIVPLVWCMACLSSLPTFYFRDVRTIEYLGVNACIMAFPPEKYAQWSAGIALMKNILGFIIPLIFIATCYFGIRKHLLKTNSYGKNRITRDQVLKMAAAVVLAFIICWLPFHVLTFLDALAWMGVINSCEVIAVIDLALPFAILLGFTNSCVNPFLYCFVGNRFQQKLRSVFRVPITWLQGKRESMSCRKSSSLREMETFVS
T1 sequence (P06734 whole entry): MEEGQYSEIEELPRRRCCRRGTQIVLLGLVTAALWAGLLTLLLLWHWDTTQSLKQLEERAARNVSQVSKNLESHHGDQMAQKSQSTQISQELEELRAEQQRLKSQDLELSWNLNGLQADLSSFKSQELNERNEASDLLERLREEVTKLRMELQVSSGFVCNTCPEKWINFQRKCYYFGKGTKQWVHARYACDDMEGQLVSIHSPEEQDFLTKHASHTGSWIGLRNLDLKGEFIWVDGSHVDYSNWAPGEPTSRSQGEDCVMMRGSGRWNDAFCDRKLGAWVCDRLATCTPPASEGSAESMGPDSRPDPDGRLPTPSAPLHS
Procedure: All synthesized ligands were evaluated in a radioligand assay by displacing 125I-[Sar1, Ile8]-Angiotensin II (Perkin Elmer, NEX248050UC) from human AT2R fused to Cb23 or human/rodent/cynomolgus/minipig/dog WT AT2R in HEK-293 cells membrane preparations, using C21 (Vicore Pharma) and Angiotensin II (endogenous ligand) as reference. The affinity was determined using an eight-point dose-response curve, each point performed in duplicates. The compounds were also evaluated in a counterscreen binding assay for displacement of 125I-[Sar1, Ile8]-Angiotensin II binding to human AT1R in HEK-293 cell membranes. For AT1R, the percent displacement was determined at 1 μM and […] or using an eight-point dose-response curve, each point performed in duplicates with Candesartan and Losartan used as reference.For the AT2R/AT1R binding assays, cell membranes, expressing AT2R_Cb23, AT2R or AT1R, were incubated with 0.05 nM 125I-[Sarl, Ile8]-Ang II. The ligand competition assay was performed in a total volume of 100 μL assay buffer (50 mM Tris, 5 mM MgCl2, 1 mM EDTA, 0.1% BSA, pH 7.4), at concentrations ranging from 1 μM to 10 μM. For each experiment, each ligand concentration was tested in duplicate. Non-specific binding (NSB) was determined by the inclusion of 10 μM unlabeled [Sarl]-Ang II (Sigma Aldrich). The reaction was initiated by the addition of radioligand, after which the plates were incubated at 25° C. for one hour. The reaction was terminated by rapid filtration using a vacuum harvester, applying six washes with 100 μL of ice-cold wash buffer (50 mM Tris.HCl, pH 7.4). The filter plates GF/C (Perkin Elmer) were pre-soaked in 0.5% PEI. The residual amount of radioactivity was determined via liquid scintillation counting. IC50 values, representing the concentration at which each ligand displaced 50% of 125I-[Sarl, Ile8]-Ang II, were calculated using GraphPad Prism 7.02 by applying a Non-linear regression equation (variable slope, four parameters) on the data.

Row | IC50 | Structure (SMILES)
1 | 1.68 µM | c1ccc2sc(CN3CCN(c4cc(NCC5CC5)ccc4-c4nn[nH]n4)CC3)nc2c1 [US20240368133, Compound A-62]
2 | 3.36 µM | CCCCNC(=O)NS(=O)(=O)c1ccc(C(F)(F)F)cc1N1CCN(Cc2nc3ccccc3n2C)CC1 [US20240368133, Compound A-10]
3 | 18.5 µM | CC(C)Cc1ccc(-c2nn[nH]n2)c(N2CCN(Cc3nc4ncccc4o3)CC2)c1 [US20240368133, Compound A-71]
4 | 9.97 µM | CCc1nc2ccc(NC(=O)c3ccccc3)cc2c(=O)n1CC1CCN(c2ccccc2-c2nn[nH]n2)CC1 [US20240368133, Compound A-245]
